Common to all, as to type: cell-based
Experiment [1] deals with HIV-1NL4-3 K103N-Y181C. The experiment in a line: Light assay with inhibitor-resistant HI reporter virus in MT4 7F2 cells. As to conditions: Human immunodeficiency virus 1, read-out: EC50 (nM) MT4 7F2 cells HIV-1NL4-3 K103N-Y181C 2% FCS. On the procedure:
(§1) For the mixture for a 96-well MTP, 3 million MT4 7F2 cells are pelleted, suspended in 1 ml of RPMI 1640 medium without phenol red (Invitrogen, Karlsruhe, Germany)/10% FCS/10% AIM-V (Invitrogen, Karlsruhe, Germany) and incubated together with a suitable amount of the corresponding HIV-1NL4-3 reporter virus at 37° C. for 2 hours (pellet infection). Unadsorbed viruses are subsequently washed out with PBS, and the infected cells are pelleted again and suspended in 8 ml of RPMI 1640 medium without phenol red/2% or 10% FCS/10% AIM-V. 80 μl thereof are pipetted into each well of a white 96-well MTP with 20 μl of test substance in suitable dilution. To avoid edge effects, the wells on the edge of the MTP are not used for substance dilutions. The second vertical row of the MTP contains only infected cells (virus control) and the eleventh vertical row only uninfected cells (cell control), in each case in RPMI 1640 medium without phenol red/2% or 10% FCS/10% AIM-V. The other wells of the MTP contain the compounds of the invention in various concentrations starting from the third vertical row, from which the test substances are diluted in 3-fold steps up to the tenth vertical row 3^7-fold. The test substances are dissolved in DMSO, whereby the final DMSO concentration in the test mixture is 1%. The test mixtures are incubated at 37° C./5% CO2 for five days and, after the addition of 15 μl of Lu164 substrate (5 mg/ml coelenterazine dissolved in 30 μM glutathione/DMSO, 100 mM NaCl, 1M MES, 100 mM glutathione), evaluated by luminometry. The resulting values are in the region of 1 000 000 RLUs (relative light units) for the virus control and 300 to 400 RLUs for the cell control. The EC50 values of the test substances are determined as the concentration at which the virus replication measured in RLUs is 50% of the untreated infected cells.

Experiment [2] concerns HIV-1LAI. The experiment in a line: H9 assay with wild-type HIV-1 (HIV-1LAI supernatant infection, AlamarBlue). The note with it: Human immunodeficiency virus 1, H9 cells, 10% FCS. On the procedure:
For the mixture for a 96-well MTP, 3 million PBLs are pelleted, suspended in 1 ml of RPMI 1640 medium/10% FCS and incubated together with a suitable amount of HIV-1LAI (NIH AIDS Research & Reference Reagent Program, Germantown, USA) at 37° C. for 2 hours (pellet infection). Unadsorbed viruses are subsequently washed out with PBS, and the infected cells are pelleted again and suspended in 18 ml of RPMI 1640 medium/10% FCS/interleukin-2 (40 U/ml). 180 μl thereof are pipetted into each well of a white 96-well MTP with 20 μl of test substance in suitable dilution. Alternatively, after preparation of the substance dilutions in the MTP, the HIV is pipetted in together with the cells and is not washed out again (supernatant infection). In order to avoid edge effects, the wells at the edge of the MTP are not used for substance dilutions. The second vertical row of the MTP contains only infected cells (virus control) and the eleventh vertical row only uninfected cells (cell control), in each case in RPMI 1640 medium/10% FCS/interleukin-2 (40 U/ml). The other wells of the MTP contain the compounds of the invention in various concentrations starting from the third vertical row, from which the test substances are diluted in 3-fold steps up to the tenth vertical row 3^7-fold. The test substances are dissolved in DMSO, whereby the final DMSO concentration in the test mixture is 1%. The test mixtures are incubated at 37° C./5% CO2. After 5 and 7 days, 50 μl of cell-free supernatant are removed from each well to determine the amount of p24 present by means of a p24 ELISA (HIV-1 p24^CA Antigen Capture Assay Kit, NCI-Frederick Cancer Research and Development Center, Frederick, USA). From the resulting values of the photometric evaluation (450/620 nm) the EC50 values of the test substances are determined as the concentration at which the amount of p24 is 50% of the untreated infected cells.
Alternatively, H9 cells (ATCC, Wesel, Germany) are employed instead of PBLs for testing the test substances. H9 cells are incubated in RPMI 1640 medium with 2% or 10% FCS as a HIV-ILAI supernatant infection at 37° C./5% CO2, (20 μl of substance dilution and 80 μl of cells/virus per well) in accordance with the pattern described above for 5 days. Subsequently, 10 μl of AlamarBlue® (Invitrogen, Karlsruhe, Germany) are added to each well, and the MTPs are incubated at 37° C. for 3 hours before the fluorimetric evaluation takes place (544/590 nm). The resulting values are about 40 000 for the untreated uninfected cells and about 7000 for the untreated infected cells. In the low concentration range, the EC50 values of the test substances are determined as the concentration at which the fluorescence is 50% of the untreated uninfected cells (in each case subtracting the values of the untreated infected cells). In addition, in the high concentration range, the CC50 values of the test substances are determined as the concentration at which the fluorescence is 50% of the untreated uninfected cells (in each case subtracting the values of the untreated infected cells).
Background: Resazurin is reduced to fluorescent resorufin, in cell work by metabolically active cells.

The test system of experiment [3] is HIV-1NL4-3 wt. The experiment can be described thus: Light assay with wild-type HI reporter virus in MT4 7F2 cells. As to conditions: Human immunodeficiency virus 1, 2% FCS. As to the method: as §1

By EC50 is commonly meant the concentration needed to bring the measured effect to its halfway point.

Regarding `O=C(c1cc(-c2cc(F)cc(Cl)c2)c(-c2ccc(F)c(Cl)c2)o1)N1CCOCC1` [Example 9, [5-(3-Chloro-4-fluorophenyl)-4-(3-chloro-5-fluorophenyl)furan-2-yl](morpholin-4-yl)methanone], the values for the EC50 in experiment [1], in experiment [2] and in experiment [3] were 500 nM, 100 nM and 19 nM, respectively.
For the molecule `N#Cc1cccc(-c2oc(C(=O)N3CCNC(=O)C3)cc2-c2cccc(Cl)c2)c1` [Example 20, 3-{3-(3-Chlorophenol)-5-[(3-oxopiperazin-1-yl)carbonyl]furan-2-yl}benzenecarbonitrile], the half-maximal effective concentration (EC50) was found to be 137 nM in experiment [1], 50 nM in experiment [2] and 2 nM in experiment [3].
With `N#Cc1cccc(-c2oc(C(=O)N3CC[S+]([O-])C3)cc2-c2cc(F)cc(Cl)c2)c1` (stereo not drawn) [Example 3, 3-{3-(3-Chloro-5-fluorophenyl)-5-[(1-oxido-1,3-thiazolidin-3-yl)carbonyl]furan-2-yl}benzenecarbonitrile], the EC50 was 160 nM in experiment [1], 4.5 nM in experiment [2] and below 1.5 nM in experiment [3].
In the case of `O=C1CN(C(=O)c2cc(-c3cccc(Cl)c3)c(-c3ccc(F)c(F)c3)o2)CCN1` [Example 19, 4-{[4-(3-Chlorophenyl)-5-(3,4-difluorophenyl)furan-2-yl]carbonyl}piperazin-2-one], the EC50 in experiment [1] amounted to 450 nM; in experiment [2], 250 nM; in experiment [3], 43 nM.
In the same order, the values of `N#Cc1cc(-c2oc(C(=O)N3CCNC(=O)C3)cc2-c2cccc(Cl)c2)ccc1F` [Example 24, 5-{3-(3-Chlorophenol)-5-[(3-oxopiperazin-1-yl)carbonyl]furan-2-yl}-2-fluorobenzenecarbonitrile] are 320 nM, 47 nM and 4 nM.
For the molecule `O=C1CN(C(=O)c2cc(-c3cc(F)cc(Cl)c3)c(-c3cccc(Cl)c3)o2)CCN1` [Example 14, 4-{[4-(3-Chloro-5-fluorophenyl)-5-(3-chlorophenyl)furan-2-yl]carbonyl}piperazin-2-one], the results for the EC50 in experiment [1], in experiment [2] and in experiment [3] were 173 nM, 52 nM and 1 nM, respectively.
Take `O=C1CN(C(=O)c2cc(-c3cc(F)cc(Cl)c3)c(-c3ccc(F)c(Cl)c3)o2)CCN1` [Example 7, 4-{[5-(3-Chloro-4-fluorophenyl)-4-(3-chloro-5-fluorophenyl)furan-2-yl]carbonyl}piperazin-2-one]: the EC50 in experiment [1] was 186 nM; in experiment [2] it was 46 nM; in experiment [3], 5 nM.
Consider `Cc1cc(C)cc(-c2cc(C(=O)N3CCNC(=O)C3)oc2-c2cccc(Cl)c2)c1` [Example 28, 4-{[5-(3-Chlorophenyl)-4-(3,5-dimethylphenyl)furan-2-yl]carbonyl}piperazin-2-one], for which the results for the EC50 in experiment [1], in experiment [2] and in experiment [3] were 400 nM, 200 nM and 30 nM, respectively.
For `O=C1CN(C(=O)c2cc(-c3cc(Cl)ccc3F)c(-c3cccc(Cl)c3)o2)CCN1` [Example 13, 4-{[4-(5-Chloro-2-fluorophenyl)-5-(3-chlorophenyl)furan-2-yl]carbonyl}piperazin-2-one], the EC50 in experiment [1] was 325 nM; in experiment [2], 160 nM; in experiment [3], 15 nM.
As for `N#Cc1cccc(-c2oc(C(=O)N3CNC(=O)C3)cc2-c2cc(F)cc(Cl)c2)c1` [Example 12, 3-{3-(3-Chloro-5-fluorophenyl)-5-[(4-oxoimidazolidin-1-yl)carbonyl]furan-2-yl}benzenecarbonitrile], the EC50 was 163 nM in experiment [1], 30 nM in experiment [2] and 2 nM in experiment [3].
`O=C1CN(C(=O)c2cc(-c3cccc(Cl)c3)c(-c3ccc(F)cc3)o2)CCN1` [Example 6, 4-{[4-(3-Chlorophenyl)-5-(4-fluorophenyl)furan-2-yl]carbonyl}piperazin-2-one]: the EC50 in experiment [1] came out at 283 nM; in experiment [2], 400 nM; in experiment [3], 48 nM.
In the same order, the values of `N#Cc1cc(F)cc(-c2cc(C(=O)N3CCOCC3)oc2-c2cccc(C#N)c2)c1` [Example 34, 3-[2-(3-Cyanophenyl)-5-(morpholin-4-ylcarbonyl)furan-3-yl]-5-fluorobenzenecarbonitrile] are 300 nM, 30 nM and below 1.5 nM.
Take `O=C1CN(C(=O)c2cc(-c3cc(F)cc(F)c3)c(-c3cccc(Cl)c3)o2)CN1` [Example 15, 1-{[5-(3-Chlorophenyl-1)-4-(3,5-difluorophenyl)furan-2-yl]carbonyl}imidazolidin-4-one]: the results for the EC50 in experiment [1], in experiment [2] and in experiment [3] were 350 nM, 110 nM and 9 nM, respectively.
Regarding `N#Cc1cccc(-c2oc(C(=O)N3CCS(=O)(=O)C3)cc2-c2cc(F)cc(Cl)c2)c1` [Example 5, 3-{3-(3-Chloro-5-fluorophenyl)-5-[(1,1-dioxido-1,3-thiazolidin-3-yl)carbonyl]furan-2-yl}benzenecarbonitrile], the figures for the EC50 in experiment [1], in experiment [2] and in experiment [3] were 305 nM, 17.5 nM and below 1.5 nM, respectively.
Turning to `O=C(c1cc(-c2cc(F)cc(Cl)c2)c(-c2ccc(F)c(Cl)c2)o1)N1CC[S+]([O-])C1` (stereo not drawn) [Example 4, [5-(3-Chloro-4-fluorophenyl-1)-4-(3-chloro-5-fluorophenyl)furan-2-yl](1-oxido-1,3-thiazolidin-3-yl)methanone], the concentration giving a half-maximal response (EC50) in experiment [1] is 261 nM; in experiment [2], 12 nM; in experiment [3], below 1.5 nM.
With `O=C1CN(C(=O)c2cc(-c3cccc(Cl)c3)c(-c3ccc(F)c(Cl)c3)o2)CCN1` [Example 22, 4-{[5-(3-Chloro-4-fluorophenyl)-4-(3-chlorophenyl)furan-2-yl]carbonyl}piperazin-2-one], the half-maximal effective concentration (EC50) in experiment [1] amounted to 185 nM; in experiment [2], 113 nM; in experiment [3], 7 nM.
In the same order, the values of `COc1cccc(-c2oc(C(=O)N3CNC(=O)C3)cc2-c2cccc(Cl)c2)c1` [Example 27, 1-{[4-(3-Chlorophenyl)-5-(3-methoxyphenyl)furan-2-yl]carbonyl}imidazolidin-4-one] are 700 nM, 200 nM and 14 nM.
With `N#Cc1cccc(-c2oc(C(=O)N3CCSC3)cc2-c2cc(F)cc(Cl)c2)c1` [Example 1, 3-[3-(3-Chloro-5-fluorophenyl)-5-(1,3-thiazolidin-3-ylcarbonyl)furan-2-yl]benzenecarbonitrile], the EC50 in experiment [1] was found to be 550 nM; in experiment [2], 65 nM; in experiment [3], 4.5 nM.
Take `COc1cccc(-c2cc(C(=O)N3CCNC(=O)C3)oc2-c2cccc(Cl)c2)c1` [Example 29, 4-{[5-(3-Chlorophenyl)-4-(3-methoxyphenyl)furan-2-yl]carbonyl}piperazin-2-one]: the half-maximal effective concentration (EC50) in experiment [1] was determined as 400 nM; in experiment [2], 450 nM; in experiment [3] it was 53 nM.

Source of the values: patent US8324268B2, “Substituted furancarboxamides, and use thereof” (AiCuris GmbH & Co. KG, priority 2008, dated 2012).
